Where two headings read alike, the source gives them in different places.
System: adhesion of normal human keratinocytes to type IV collagen
Details: for percentage increase in adhesion: compared with control cultures; for A = adhesion in μg of protein per well (mean): keratinocytes of a donor, control 3.52
Description: Coating of the Adhesion Surfaces with Type IV Collagen
Wells of microplates (Falcon) are covered with 6 μg/cm^2 of sterile type IV human collagen (from Sigma).
Each well is then incubated overnight at +4° C. with a 4 mg/ml solution of bovine albumin, BSA, from Sigma.
The wells are then rinsed twice with a phosphate buffer, PBS (phosphate buffered saline), from Gibco.
Preparation of the Cultures of Normal Human Keratinocytes
The skin fragments are incubated in 0.25% w/v trypsin for 18 hours at +4° C. to separate the dermis and epidermis and to obtain, by agitation, a suspension of epidermal cells. The trypsin is neutralized with fetal calf serum, FCS, from Gibco.
The cells are inoculated into flasks defining a surface area of 75 cm^2 and are cultured in keratinocyte proliferation medium, K-SFM, from Gibco, to the point of confluence, when they are subcultured.
The cells used for the experiments for adhesion to the collagen substrate were not subcultured beyond the first subculture (called P0 or P1).
The keratinocytes are then incubated for 30 minutes at +4° C. before the step for adhesion to the substrate coated with collagen IV is carried out.
Measurement of the Adhesion of the Keratinocytes to the Type IV Collagen
The keratinocytes are inoculated into each well at a density of 93,000 cells/cm^2 in E 199 medium from Gibco, containing 2 mM L-glutamine from Gibco and 4 mg/ml of BSA (bovine serum albumin). After incubation for one hour at +4° C., the wells are rinsed with PBS, the adhering cells are then lyzed with 0.1 N sodium hydroxide solution and the cellular proteins are then quantified by means of the calorimetric method and bicinchoninic acid (BCA from Sigma).
A calibration is performed in parallel with BSA solubilized in 0.1 N sodium hydroxide solution, enabling the optical density (OD) values to be converted to micrograms (μg) of proteins per well.
These adhesion values between treated and untreated cells were compared by the 0.7 Student t-test at the p=0.05 threshold in order to assess their level of significance.

SMILES | percentage increase in adhesion (0.25 mM) | A = adhesion in μg of protein per well (mean) (0.25 mM) | A = adhesion in μg of protein per well (mean) (0.5 mM) | percentage increase in adhesion (1 mM) | A = adhesion in μg of protein per well (mean) (1 mM)
N[C@@H](CC(=O)[O-])C(=O)[O-].[Mg+2] [Magnesium aspartate, magnesium aspartate] | +54% | 5.39 μg of protein per well |  |  | 
[Cl-].[Cl-].[Mg+2] [Magnesium chloride, magnesium chloride] |  | 4.32 μg of protein per well | 4.54 μg of protein per well | +31% | 4.57 μg of protein per well

Reference: patent US7678380B2, “Cosmetic treatment method for fighting against skin ageing effects” (LVMH Recherche, priority 1996, dated 2010)
